{"source": "patent US20110124607A1", "about": "“COMPOSITION FOR REGULATION CELLULAR SENESCENCE COMPRISING LYSOPHOSPHATIDIC ACID AND INHIBITOR OF ADENYLYL CYCLASE AS ACTIVE INGREDIENTS” (priority 2008, published 2011)", "key": {"[1]": {"system": "senescent cells (human fibroblasts)", "assay": "Cell cycle analysis by flow cytometry (S phase entry), senescent cells", "type": "cell-based", "details": "30 μM LPA, 300 μM ACI, 1, 2, 4 days", "description": "(§1) At this time, cell numbers regarded as significant compared with that of the control were presented in (A) and (B) (p<0.001). Cell cycle in (C) was analysed by flow cytometry. The percentage of cells entered S phase was averaged of three repeated measurements (p<0.001). Young and senescent cells were treated with 30 μM of LPA, 300 μM of ACI, LPA+ACI, 10 mM of AMPKI or 10 mM of AICAR, followed by culture for 1, 2, and 4 days. To analyze cell cycle, the cells were washed with buffer twice and then the cells were centrifuged using 0.25% trypsin, followed by fixation in cold 70% ethanol. Analysis was performed by flow cytometry (Becton Dickinson FACSorter) using […] of PI containing RNase. Cell proliferation and cAMP level were increased by LPA in senescent cells (Yeo et al., 2002). The AC inhibitor (ACI) was added to reduce cAMP which had been increased by LPA. And then, cell proliferation was investigated. Cells were cultured in serum-free medium for 2 days to arrest them in G0/G1 phase. Then, the cells were treated with LPA, ACI or LPA+ACI. Total cell number was measured on day 1, day 2 and day 4, or the cells entered into S phase were counted to evaluate cell proliferation. When young cells were treated with 300 μM of ACI, cell proliferation was reduced, compared with control (FIG. 1A). […]"}, "[2]": {"system": "senescent cells (human fibroblasts)", "assay": "Microscope observation of morphology of senescent cells", "type": "cell-based", "details": "day 4", "description": "In the meantime, when senescent cells were treated with ACI, p21 expression was reduced on day 2 and day 4. […] Microscope observation also confirmed that young cell like cells were increased compared with the control (untreated senescent cells are bigger in size, so that less cells can be observed under microscope, compared with treated senescent cells). […] So was cyclin D1 expression (FIG. 3B). […] Thus, when senescent cells were treated with ACI, p21 and cyclin D1 expressions were reduced and thereby DNA synthesis in senescent cell increased to induce cell proliferation."}, "PKA": {"system": "PKA", "assay": "PKA activity in cells", "type": "cell-based, human"}, "[3]": {"system": "young cells (human fibroblasts)", "assay": "Cell cycle analysis by flow cytometry (S phase entry), young cells", "type": "cell-based", "details": "30 μM LPA", "description": "as §1"}, "cAMP": {"system": "cAMP", "details": "cited from earlier work"}}, "note": "Read-outs that look alike come from different tables or passages of the source."}
{"compound": "Nc1ncnc2c1ncn2C1CCCO1", "note": "(stereo not shown) [ACI, 9-(tetrahydro-2′-furyl)adenine]", "values": [{"measurement": "cell number entered into S phase", "setting": "[1]", "result": "increased"}, {"measurement": "change of senescent cells into young cell like cells", "setting": "[2]", "result": "most cells were changed into young cell like cells"}, {"measurement": "PKA activity", "setting": "PKA; senescent cells", "result": "completely inhibited"}, {"measurement": "PKA activity", "setting": "PKA; young cells", "result": "completely inhibited"}]}
{"compound": "lysophosphatidic acid [LPA]", "values": [{"measurement": "S phase entry", "setting": "[3]", "result": "promotion of S phase entry"}, {"measurement": "cAMP level", "setting": "cAMP; senescent cells (Yeo et al., 2002)", "result": "increased"}, {"measurement": "cAMP level", "setting": "cAMP; young cells (Jang et al., 2006b)", "result": "down-regulated"}]}
